Measured values published in ChEMBL document CHEMBL2074527, “Evidence for the absolute conformational specificity of the intestinal H+/peptide symporter, PEPT1” (J Biol Chem, 1998).

Molecular target: T1, Solute carrier family 15 member 1 (Homo sapiens, UniProt P46059)
T1 sequence (P46059 whole entry): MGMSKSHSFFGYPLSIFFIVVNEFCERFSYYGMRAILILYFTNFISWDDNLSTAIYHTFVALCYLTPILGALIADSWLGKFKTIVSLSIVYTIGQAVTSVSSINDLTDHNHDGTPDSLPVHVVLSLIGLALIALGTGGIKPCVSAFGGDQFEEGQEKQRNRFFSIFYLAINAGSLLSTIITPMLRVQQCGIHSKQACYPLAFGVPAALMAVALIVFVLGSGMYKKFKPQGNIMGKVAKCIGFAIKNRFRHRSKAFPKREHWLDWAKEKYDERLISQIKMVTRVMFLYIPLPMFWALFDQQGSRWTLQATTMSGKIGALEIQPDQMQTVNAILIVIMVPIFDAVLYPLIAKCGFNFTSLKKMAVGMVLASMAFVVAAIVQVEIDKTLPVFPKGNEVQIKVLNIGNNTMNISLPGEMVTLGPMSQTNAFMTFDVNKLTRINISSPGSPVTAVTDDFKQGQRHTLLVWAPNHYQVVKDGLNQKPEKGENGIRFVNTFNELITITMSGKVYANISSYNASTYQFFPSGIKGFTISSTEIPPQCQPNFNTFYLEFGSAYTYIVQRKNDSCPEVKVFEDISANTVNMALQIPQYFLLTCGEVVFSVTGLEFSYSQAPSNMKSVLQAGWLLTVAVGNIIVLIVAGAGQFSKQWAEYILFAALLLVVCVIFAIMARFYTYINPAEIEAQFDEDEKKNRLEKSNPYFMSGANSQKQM
Assay: TP_TRANSPORTER: inhibition of Gly-Sar uptake, 96% trans conformation in Caco-2 cells
Assay type: functional, cell-based

CC(N)C(=S)N1CCCC1C(=O)O (stereo unspecified)
Ki: 300 µM
